Laboratory results: US9603905B2, “Intranasal insulin administration for the minimization of anesthesia-induced memory loss” (priority 2014, dated 2017)
Read-outs that look alike come from different tables or passages of the source.

Tests used:
[1] = tested on: tau protein kinases (GSK-3β, MAPK/ERK, cdk5, CaMKII, JNK); type: in vivo
Protocol: (§1) The 3xTg-AD mice and WT mice (female, 9 months old) used for the present study were habituated to handling for 14 days prior to the experiment. Female mice were used because the female 3xTg-AD mice develop behavioral deficits faster than the male mice. The selection of the age of 9 months was because the 3xTg-AD mice at this age show neurogenic and neuroplastic deficits but no NFTs or amyloid plaques and are cognitively impaired. Intranasal delivery was carried out manually without anesthesia while the mouse head was restrained in a supine position with the neck in extension, as described. A total of 1.75 U/17.5 μl insulin or 0.9% saline (Veh 1) was delivered over both nares alternatively using a 10 μl Eppendorf pipetter. The mouse was held for an additional 5-10 seconds to ensure the fluid was inhaled. […] All mice were treated with insulin or, as a control, saline daily for 7 consecutive days. […] The brains were removed immediately, and the rostral halves (separated coronally at the bregma level) of the mouse brains were dissected, flash frozen in dry ice, and stored at −80° C. for biochemical analyses at a later date.
Mouse brain tissue was homogenized in pre-chilled buffer containing 50 mM Tris-HCl (pH 7.4), 50 mM GlcNAc, 20 μM UDP, 2.0 mM EGTA, 2 mM Na3VO4, 50 mM NaF, 20 mM Glycero-phosphate, 0.5 mM AEBSF, 10 μg/ml aprotinin, 10 μg/ml leupeptin, and 4 μg/ml pepstatin A. Protein concentrations of the homogenates were determined by using modified Lowery method. The samples were resolved in 10% or 12.5% SDS-PAGE and electro-transferred onto Immobilon-P membrane (Millipore, Bedford, Mass., USA). The blots were then probed with primary antibody and developed with the corresponding horseradish peroxidase-conjugated secondary antibody and ECL kit (Pierce, Rockford, Ill.). Densitometrical quantification of protein bands in Western blots were analyzed by using the TINA software (Raytest IsotopenmeBgerate GmbH, Straubenhardt, Germany).
Besides PP2A, tau phosphorylation is also regulated by several protein kinases. The levels of several tau protein kinases have been reported to be altered after anesthesia. We therefore determined the levels of the total and the activated form of several tau protein kinases, including glycogen synthase kinase-3β (GSK-3β), mitogen-activated protein kinase/extracellular signal-regulated kinase (MAPK/ERK), cyclin-dependent kinase 5 (cdk5), calcium/calmodulin-dependent protein kinase II (CaMKII), and c-Jun N-terminal kinase (JNK).

[2] = Protocol: as §1
Hypothermia is known to be a major factor underlying anesthesia-induced tau hyperphosphorylation. Therefore, the rectal temperature of the mice was determined.

brain insulin signaling = test: Western blot of brain insulin signaling components; type: in vivo, 3xTg-AD mice; settings: intranasal insulin 7 days prior to propofol; 3xTg-ins/prop vs 3xTg-veh1/prop
Protocol: (§2) The 3xTg-AD mice and WT mice (female, 9 months old) used for the present study were habituated to handling for 14 days prior to the experiment. Female mice were used because the female 3xTg-AD mice develop behavioral deficits faster than the male mice. The selection of the age of 9 months was because the 3xTg-AD mice at this age show neurogenic and neuroplastic deficits but no NFTs or amyloid plaques and are cognitively impaired. Intranasal delivery was carried out manually without anesthesia while the mouse head was restrained in a supine position with the neck in extension, as described. A total of 1.75 U/17.5 μl insulin or 0.9% saline (Veh 1) was delivered over both nares alternatively using a 10 μl Eppendorf pipetter. The mouse was held for an additional 5-10 seconds to ensure the fluid was inhaled. […]
(§3) Mouse brain tissue was homogenized in pre-chilled buffer containing 50 mM Tris-HCl (pH 7.4), 50 mM GlcNAc, 20 μM UDP, 2.0 mM EGTA, 2 mM Na3VO4, 50 mM NaF, 20 mM Glycero-phosphate, 0.5 mM AEBSF, 10 μg/ml aprotinin, 10 μg/ml leupeptin, and 4 μg/ml pepstatin A. Protein concentrations of the homogenates were determined by using modified Lowery method. […] Densitometrical quantification of protein bands in Western blots were analyzed by using the TINA software (Raytest IsotopenmeBgerate GmbH, Straubenhardt, Germany).

old wild type mice = test: Morris water maze (MWM) test after anesthesia
Protocol: This paradigm of anesthesia is similar to that used clinically for surgical patents in the U.S. The cognitive function of the mice was assessed starting on the next day by using the Morris water maze (MWM) test, a widely used cognitive test for rodents.
Probe testing was carried out on the following day after four-day training and was used to evaluate the retrieval of spatial memory.

phosphorylated tau = test: Immunohistochemical staining of brain sections with 12E8 and PHF-1; type: in vivo, 3xTg-AD mice; settings: frontal cortex; 30 min after propofol; 3xTg-ins/prop vs 3xTg-veh1/prop
Protocol: as §1

tau phosphorylation = test: Western blot of tau phosphorylation in brain homogenates of 3xTg-AD mice; type: in vivo; settings: intranasal insulin 1.75 U daily 7 days before propofol, 30 min following propofol
Protocol: as §2, §3

PP2A = test: Western blot of PP2A-C level, methylation and Tyr307 phosphorylation in brain; type: in vivo, 3xTg-AD mice; settings: intranasal insulin 7 days before propofol
Protocol: as §2, §3

[3] = insulin treatment before anesthesia vs anesthesia alone

Compound | GSK-3β and ERK ([1]; after anesthesia with propofol) | JNK ([1]; after anesthesia with propofol) | a few other tau kinases ([1]; after anesthesia with propofol) | inhibitory Ser9 phosphorylation of GSK-3β ([1]; after anesthesia with propofol) | average rectal temperature ([2]; two hours after propofol injection (250 mg/kg i.p.)) | average rectal temperature ([2]; within 30 min after propofol injection (250 mg/kg i.p.), from around 38.2° C.) | CDK5, CaMKII pT286 and JNK pT184/pY185 ([1]; intranasal insulin treatment, propofol-treated mouse brains) | body temperature, insulin-treated vs untreated mice ([2]; during propofol anesthesia, intranasal insulin 7 days before) | levels of IRβ, IGF-1Rβ, IRβ pY1150/1151, IRS1 pS307, PI3K p85 pY458, PI3K p55 pY199, PDK1, AKT and AKT pT308 (brain insulin signaling) | swimming speeds (old wild type mice; among the four groups (control, anesthesia, insulin+anesthesia, insulin)) | number of platform location crossing during probe test (old wild type mice; [3]) | time to reach the platform location during probe test (old wild type mice; [3]) | spatial learning (old wild type mice; insulin treatment to control mice without anesthesia) | learning performance (time to reach the platform, four training days) (old wild type mice; intranasal insulin 1.75 IU/mouse/day for 7 days before one-time anesthesia) | number of strongly stained neurons (12E8, PHF-1) (phosphorylated tau) | phosphorylation level of tau at Thr212, Ser262/356 (12E8 sites), Ser396/404 (PHF-1 sites), Ser409 (tau phosphorylation; 3xTg-ins/prop vs 3xTg-veh1/prop) | phosphorylation level of tau at Thr181, Ser199, Thr205, Thr231, Ser422 (tau phosphorylation; insulin-treated vs untreated) | net PP2A methylation (PP2A; after normalization with the PP2A-C level) | level and methylation of PP2A in the mouse brain (PP2A; normalized with GAPDH, vs 3xTg-veh1/prop)
CC(C)c1cccc(C(C)C)c1O [propofol] | inhibition | activation | moderate alterations | dramatic increase | 25.6 °C | 28.6 °C | – | – | – | – | – | – | – | – | – | – | – | – | –
Insulin | – | – | – | – | – | – | mild to moderate reductions | no difference | up-regulated | not different | increased | decreased | did not affect spatial learning significantly | as good as control mice | markedly reduced | significantly lower | the decreases did not reach statistical significance | not increased | significant increase
